{
  "source": "patent EP0100983A1",
  "about": "“Steroid compounds with choleretic activity, a process for their preparation, and therapeutic compounds which contain them as active principle” (PROTER S.p.A., priority 1982, dated 1984)",
  "key": {"[1]": {"test_system": "male albino rats of Wistar stock", "assay": "Choleretic activity in bile-duct (choledocus) cannulated rats, method of D'Armour and coll.: bile flow (test a) and bile dry residue (test b)", "assay_type": "in vivo", "conditions": "rat", "description": "By way of example, details are given of the activity of 3α,7β-dihydroxy-6/3-cholan-24-oyl acetic acid (A) and of its trimebutine salt (B) compared with ursodeoxycholic acid (C), using the method of D'Armour and coll. (J. Pharmacol. Exp. Theor. 133, 400 (1961)).\nThis method consists essentially of cannulating the choledocus of the treated animals and collecting the bile before and after treatment with the drugs.\n24 male albino rats of Wistar stock were used having an average weight of 400 g and divided into 4 batches of 6 animals each.\nIn the method used, after the surgical cannulation, the bile was allowed to flow out for about 30-45 minutes in order to regulate the flow, after which the basic bile was collected for 60 minutes.\nAfter this time, the drug was administered into the subpyloric duodenal tract at a dose of 0.5 mM/kg, and the bile was collected in suitable graduated test tubes, the samples of each animal being split into periods of exactly 60 minutes, for a time of 3 hours after treatment. The following were then determined for each animal: • a) the quantity of bile which had flown out after each hour, and • b) the dry residue obtained after drying each sample under vacuum.\nThe tested compounds were solubilised with stoichiometric quantities of M NaOH, to obtain solutions or suspensions at pH 10.\nPhysiological solution (S.F.) adjusted to pH 10 by M NaOH was used for the control group.\nThe data obtained in the described experiments by administering equimolar doses of the products A and B and of the comparison drug C are shown on the accompanying graphs."}, "guinea pig ileum": {"test_system": "guinea pig ileum", "assay": "In vitro antispastic activity on the guinea pig ileum against acetylcholine bromide", "conditions": "relative to trimebutine hydrochloride", "description": "Compound B was also used in \"in vibro\" antispastic activity tests on the guinea pig ileum, using acetylcholine bromide as […] in canparison with trimebutine hydrochloride."}, "Wistar rats": {"test_system": "Wistar rats", "assay": "Acute toxicity by oral administration in the rat", "assay_type": "in vivo", "procedure": "Acute toxicity was also tested by oral administration of the acid A and the salt B in the rat in comparison with ursodeoxycholic acid. 60 Wistar rats of the two sexes were used having an average weight of 200 g, divided randomly into three batches of 10 males and 10 females and treated orally by gastric probe with the following products: • batch 1: ursodeoxycholic acid (C) - 15% suspension in a 10% solution of gum arabic; […] equivalent to 3 g/kg of product; • batch 2: product (A) - 15% suspension in a 10% solution of gum arabic: 20 ml/kg equivalent to 3 g/kg of product; • batch 3: product (B) - 15% suspension in a 10% solution of gum arabic: 20 ml/kg equivalent to 3 g/kg of product.\nThe animals, kept under observation for two weeks, registered no case of death or other toxicity symptom."}},
  "note": "Where a name gives a salt, the structure may show the parent alone.",
  "data": [
    {"smiles": "C[C@H](CCC(=O)O)[C@H]1CC[C@H]2[C@@H]3[C@@H](O)C[C@@H]4C[C@H](O)CC[C@]4(C)[C@H]3CC[C@]12C", "note": "[ursodeoxycholic acid, 3α ,7β-dihydroxy-6β-cholan-24-oic acid, reference compound]", "values": [
      {"measurement": "duration of the action", "setting": "[1]; 0.5 mM/kg intraduodenal, bile dry residue test (Figure 2)", "result": 1, "unit": "h"}
    ]},
    {"smiles": "CC(CCC(=O)OCC(=O)O)C1CCC2C3C(O)CC4CC(O)CCC4(C)C3CCC12C", "note": "(stereo not drawn) [Compound B, 2-dimethylamino-2-phenylbutyl 3,4,5-trimethoxybenzoate salt of 3α ,7β-dihydroxy-6β-cholan-24-oyl acetic acid]", "values": [
      {"measurement": "activity on the bile flow after 3 hours", "setting": "[1]; 0.5 mM/kg intraduodenal, 3 hours after treatment, Figure 1", "result": "high"},
      {"measurement": "antispastic activity", "setting": "guinea pig ileum", "result": "approximately double that of trimebutine"},
      {"measurement": "toxicity (concluding statement)", "setting": "Wistar rats; oral", "result": "absolute absence of toxicity"}
    ]},
    {"smiles": "CC(CCC(=O)OCC(=O)O)C1CCC2C3C(O)CC4CC(O)CCC4(C)C3CCC12C", "note": "(stereo not drawn) [A, 3α,7β-dihydroxy-6β-cholan-24-oyl acetic acid]", "values": [
      {"measurement": "maximum intensity action on the bile flow", "setting": "[1]; 0.5 mM/kg into the subpyloric duodenal tract, compared with ursodeoxycholic acid (C) at equal dose, Figure 1", "result": "practically equivalent to that of the comparison drug"},
      {"measurement": "activity on the bile flow after 1 hour", "setting": "[1]; 0.5 mM/kg intraduodenal, 1 hour after treatment, relative to comparison drug C, Figure 1", "result": "slightly less"},
      {"measurement": "activity on the bile flow after 2 hours", "setting": "[1]; 0.5 mM/kg intraduodenal, 2 hours after treatment, relative to comparison drug C, Figure 1", "result": "greater"},
      {"measurement": "dry residual content of the bile (indicative of the bile salt content), maximum values", "setting": "[1]; 0.5 mM/kg intraduodenal, compared with ursodeoxycholic acid, Figure 2", "result": "practically equal to that obtained after treatment with ursodeoxycholic acid"},
      {"measurement": "tolerability when administered orally in a single dose", "setting": "Wistar rats; single oral dose 3 g/kg", "result": "very well tolerated"}
    ]}
  ]
}
